Experiment: first-order primary biodegradation rate constant k (sorption-corrected, fDis-corrected) (d-1); higher = faster biodegradation
Description: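 Modified OECD 309 water-sediment test. River water plus sieved sediment (50 g wet solid/L) from European river segments (DE, CH, ES, EL) was spiked with a mixture of 129 compounds at 1 ug/L each and incubated in the dark at river temperature for 10 days. The water phase was analysed by UHPLC-Orbitrap-MS. The first-order primary biodegradation rate constant k (d-1) is k_observed, corrected for dissipation in sterile sorption controls and divided by the dissolved fraction fDis; it was fitted over 3 replicate incubations. Invalid fits (p > 0.05, n < 5, not available, concentration increase) are excluded.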

[1] = river segment: Greece (EL) A_Contam, incubation temperature 19 °C
[2] = river segment: Greece (EL) G_Contam, incubation temperature 19 °C
[3] = river segment: Switzerland (CH) U_Pris, incubation temperature 17 °C
[4] = river segment: Germany (DE) H_Contam, incubation temperature 24 °C
[5] = river segment: Germany (DE) T_Contam, incubation temperature 24 °C
[6] = river segment: Germany (DE) T_Pris, incubation temperature 24 °C
[7] = river segment: Greece (EL) G_Pris, incubation temperature 19 °C
[8] = river segment: Greece (EL) L_Contam, incubation temperature 19 °C
[9] = river segment: Spain (ES) B_Contam, incubation temperature 24 °C
[10] = river segment: Spain (ES) C_Contam, incubation temperature 24 °C
[11] = river segment: Spain (ES) F_Pris_Salt, incubation temperature 24 °C
[12] = river segment: Spain (ES) L_Contam, incubation temperature 24 °C
[13] = river segment: Switzerland (CH) C_Contam, incubation temperature 17 °C
[14] = river segment: Switzerland (CH) R_Contam, incubation temperature 17 °C
[15] = river segment: Switzerland (CH) U_Contam, incubation temperature 17 °C

Structure (SMILES)	first-order primary biodegradation rate constant k [1]	first-order primary biodegradation rate constant k [2]	first-order primary biodegradation rate constant k [3]	first-order primary biodegradation rate constant k [4]	first-order primary biodegradation rate constant k [5]	first-order primary biodegradation rate constant k [6]	first-order primary biodegradation rate constant k [7]	first-order primary biodegradation rate constant k [8]	first-order primary biodegradation rate constant k [9]	first-order primary biodegradation rate constant k [10]	first-order primary biodegradation rate constant k [11]	first-order primary biodegradation rate constant k [12]	first-order primary biodegradation rate constant k [13]	first-order primary biodegradation rate constant k [14]	first-order primary biodegradation rate constant k [15]
CCOc1nc2cccc(C(=O)O)c2n1Cc1ccc(-c2ccccc2-c2nnn[nH]2)cc1 [Candesartan]	0.00917	0.398	0.00966												
NS(=O)(=O)c1cc(C(=O)O)c(NCc2ccco2)cc1Cl [Furosemide]	0.168		0.0826	0.0829	0.171	0.0275	0.0968	0.114	0.359	0.149	0.0149	0.229	0.0405	0.336	0.155
C=CCOc1ccccc1OCC(O)CNC(C)C (configuration not stated) [Oxprenolol]		0.0189	0.0473	0.0433	1.9	0.0369	0.111	0.756	0.107		0.426	0.142	0.0127	0.0926	0.0534
CCN1CCCC1CNC(=O)c1cc(S(=O)(=O)CC)c(N)cc1OC (configuration not stated) [Amisulpride]	0.501	0.129	0.0314	0.0111	0.266	0.0301	0.106		0.0427			0.00307	0.0234		0.00879
CNCCC(Oc1ccc(C(F)(F)F)cc1)c1ccccc1 (configuration not stated) [Fluoxetine]			2.14	0.797		3.25							0.0571		4.2
COc1cc(NS(=O)(=O)c2ccc(N)cc2)nc(OC)n1 [Sulfadimethoxine]	0.0824	0.0668	0.0859	0.129	0.416		0.237	0.123	1.13			1.27	0.0158	0.00496	
c1ccc2[nH]nnc2c1 [Benzotriazole]	0.316		0.0264	0.0409	0.0507	0.00553	0.0923	2.87	0.0121	0.00219		0.208		0.00612	0.0122
Nc1ccc(S(=O)(=O)Nc2nccs2)cc1 [Sulfathiazole]	1.21	1.63	0.0554	0.0753		0.259	1.17	0.81	0.646	0.00288	0.0294	1.5	0.0717	0.119	

Reference: the supplement of paper PMC11562712
